In patent US11479559B2, “Urea-substituted aromatic ring-linked dioxinoquinoline compounds, preparation method and uses thereof” (BEIJING SCITECH-MQ PHARMACEUTICALS LIMITED, priority 2018, dated 2022):
Where two headings read alike, the source gives them in different places.

How the values were obtained:
[1] = biological target: VEGFR2 tyrosine kinase (Homo sapiens (Human), UniProt P35968); assay: Assay of small molecular compounds for inhibiting the activity of VEGFR-2 kinase (LANCE TR-FRET)
Protocol: (§1) The assay is based on the LANCE TR-FRET technology of Perkin Elmer Inc., and the assay method is as follows:
(§2) 2.5 μL of the gradient-diluted compounds were taken with a transfer pipette to a 384-well plate.
Addition of enzyme: 5 μL of 2× VEGFR2 kinase solution (concentration was 0.5 nM) was taken with a transfer pipette to the corresponding reaction well of the 384-well plate, mixed well and pre-reacted at room temperature for 30 minutes.
2.5 μL 4× Ultra ULight™-JAK-1 (Tyr1023) Peptide (concentration was 200 nM)/ATP (concentration was 40 μMM) mixture was taken with a transfer pipette to the corresponding reaction well of the 384-well plate.
Negative control: 2.5 μL/well 4× substrate/ATP mixture and 7.5 μL 1× Kinase Assay Buffer were added to the wells of the 384-well plate.
(§3) The final concentration of DMSO in the reaction system was 4%.
(§4) The mixture was mixed well and then centrifuged and reacted at room temperature in dark for 60 min.
(§5) The 384-well plate was placed into the Envision plate reader and the signal was detected using the appropriate program.

[2] = biological target: RET tyrosine kinase (Homo sapiens (Human), UniProt P07949); assay: Assay of small molecular compounds for inhibiting the activity of RET kinase (LANCE TR-FRET)
RET tyrosine kinase, sequence (P07949 29-1114): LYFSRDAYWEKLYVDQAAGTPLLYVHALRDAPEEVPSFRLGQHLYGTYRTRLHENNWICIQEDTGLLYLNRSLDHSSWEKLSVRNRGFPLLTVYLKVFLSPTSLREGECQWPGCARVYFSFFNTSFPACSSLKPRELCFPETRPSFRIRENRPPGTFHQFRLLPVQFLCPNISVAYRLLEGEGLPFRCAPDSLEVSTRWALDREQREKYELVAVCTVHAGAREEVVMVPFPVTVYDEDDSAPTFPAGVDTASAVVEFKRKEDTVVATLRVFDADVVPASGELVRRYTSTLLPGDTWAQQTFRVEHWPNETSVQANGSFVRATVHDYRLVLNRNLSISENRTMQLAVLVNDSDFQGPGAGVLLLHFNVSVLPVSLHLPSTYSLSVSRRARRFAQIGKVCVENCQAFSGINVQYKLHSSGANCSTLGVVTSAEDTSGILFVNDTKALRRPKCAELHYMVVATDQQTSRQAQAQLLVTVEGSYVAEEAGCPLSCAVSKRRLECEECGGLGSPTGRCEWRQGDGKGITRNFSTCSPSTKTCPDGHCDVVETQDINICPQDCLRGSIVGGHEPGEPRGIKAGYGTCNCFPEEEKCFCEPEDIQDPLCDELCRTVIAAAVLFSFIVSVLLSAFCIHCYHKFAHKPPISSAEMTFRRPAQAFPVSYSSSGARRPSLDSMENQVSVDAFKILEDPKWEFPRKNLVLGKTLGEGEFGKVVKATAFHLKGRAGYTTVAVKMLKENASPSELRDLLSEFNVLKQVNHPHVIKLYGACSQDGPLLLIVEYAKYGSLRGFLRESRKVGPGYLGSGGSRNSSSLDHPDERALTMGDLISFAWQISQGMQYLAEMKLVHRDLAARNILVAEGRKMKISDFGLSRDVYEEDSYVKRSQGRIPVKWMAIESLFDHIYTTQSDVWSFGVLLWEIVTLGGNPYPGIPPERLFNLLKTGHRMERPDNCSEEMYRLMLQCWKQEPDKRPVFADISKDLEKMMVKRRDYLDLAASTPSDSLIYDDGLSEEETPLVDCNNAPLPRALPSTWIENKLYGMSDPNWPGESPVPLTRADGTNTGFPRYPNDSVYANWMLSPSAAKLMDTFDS
Protocol: as §1, §2
Addition of enzyme: 5 μL of 2× RET kinase solution (concentration was 0.8 nM) was taken with a transfer pipette to the corresponding reaction well of the 384-well plate, mixed well and pre-reacted at room temperature for 30 minutes.
2.5 μL 4× Ultra ULight™-JAK-1 (Tyr1023) Peptide (concentration was 200 nM)/ATP (concentration was 40 μM) mixture was taken with a transfer pipette to the corresponding reaction well of the 384-well plate.
as §3, §4, §5

VEGFR2 tyrosine kinase, sequence (P35968 20-1356): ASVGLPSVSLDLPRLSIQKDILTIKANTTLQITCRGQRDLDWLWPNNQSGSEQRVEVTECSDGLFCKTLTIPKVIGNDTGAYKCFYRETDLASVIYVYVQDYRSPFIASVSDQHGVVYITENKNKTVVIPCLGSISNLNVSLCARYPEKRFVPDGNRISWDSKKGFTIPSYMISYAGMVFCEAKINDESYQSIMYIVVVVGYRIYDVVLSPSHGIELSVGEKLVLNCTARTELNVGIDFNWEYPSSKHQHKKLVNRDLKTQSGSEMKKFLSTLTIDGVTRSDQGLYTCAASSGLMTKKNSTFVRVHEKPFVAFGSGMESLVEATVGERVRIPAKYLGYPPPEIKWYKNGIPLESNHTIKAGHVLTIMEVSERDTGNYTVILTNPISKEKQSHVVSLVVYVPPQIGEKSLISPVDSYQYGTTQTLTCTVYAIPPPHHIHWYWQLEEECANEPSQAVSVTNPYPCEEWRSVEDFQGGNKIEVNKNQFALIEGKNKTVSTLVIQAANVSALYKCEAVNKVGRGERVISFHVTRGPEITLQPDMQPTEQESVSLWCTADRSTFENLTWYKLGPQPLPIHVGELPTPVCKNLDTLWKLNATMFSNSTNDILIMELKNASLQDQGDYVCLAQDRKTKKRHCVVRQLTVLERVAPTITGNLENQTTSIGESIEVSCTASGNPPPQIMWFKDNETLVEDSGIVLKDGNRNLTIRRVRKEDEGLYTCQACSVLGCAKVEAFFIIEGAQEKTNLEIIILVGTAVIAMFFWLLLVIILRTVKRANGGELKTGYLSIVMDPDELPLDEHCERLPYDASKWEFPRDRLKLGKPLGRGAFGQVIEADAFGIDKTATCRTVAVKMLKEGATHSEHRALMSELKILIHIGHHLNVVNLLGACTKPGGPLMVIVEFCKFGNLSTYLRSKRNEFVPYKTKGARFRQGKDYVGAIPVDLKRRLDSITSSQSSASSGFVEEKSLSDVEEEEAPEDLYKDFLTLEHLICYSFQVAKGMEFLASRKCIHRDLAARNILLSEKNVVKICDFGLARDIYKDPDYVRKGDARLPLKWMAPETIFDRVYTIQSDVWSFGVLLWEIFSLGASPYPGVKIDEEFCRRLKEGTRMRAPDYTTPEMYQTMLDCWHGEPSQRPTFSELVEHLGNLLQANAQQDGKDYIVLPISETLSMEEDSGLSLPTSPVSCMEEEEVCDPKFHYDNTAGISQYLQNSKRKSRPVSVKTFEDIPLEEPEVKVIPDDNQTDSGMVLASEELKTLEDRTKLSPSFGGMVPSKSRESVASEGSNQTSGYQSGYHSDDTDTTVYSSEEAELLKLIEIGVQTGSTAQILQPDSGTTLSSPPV

| SMILES | IC50 ([1]; read-out: VEGFR-2 IC50) [µM] | IC50 ([2]; read-out: RET IC50) [µM] | IC50 [1] [µM] | IC50 [2] [µM] |
| --- | --- | --- | --- | --- |
| O=C(Nc1ccc(F)cc1)Nc1ccc(Oc2ccnc3cc(OCCCN4CCOCC4)c4c(c23)OCCO4)cc1 [Example 77, 1-(4-fluorophenyl)-3-(4-((5-(3-morpholinopropoxy)-2,3-dihydro-[1,4]dioxino[2,3-f]quinolin-10-yl)oxy)phenyl)urea] | < 0.05 | < 0.05 | – | – |
| CN1CCN(CCCOc2cc3nccc(Oc4ccc(NC(=O)Nc5ccc(Cl)c(C(F)(F)F)c5)cc4)c3c3c2OCCO3)CC1 [Example 21, 1-(4-chloro-3-(trifluoromethyl)phenyl)-3-(4-((5-(3-(4-methylpiperazin-1-yl)propoxy)-2,3-dihydro-[1,4]dioxino[2,3-f]quinolin-10-yl)oxy)phenyl)urea] | < 0.05 | < 0.05 | – | – |
| COc1cc2nccc(Oc3ccc(NC(=O)Nc4ccc(Cl)c(C(F)(F)F)c4)cc3)c2c2c1OCCO2 [Example 1, 1-(4-chloro-3-(trifluoromethyl)phenyl)-3-(4-((5-methoxy-2,3-dihydro-[1,4]dioxino[2,3-f]quinolin-10-yl)oxy)phenyl)urea] | < 0.05 | < 0.05 | – | – |
| COc1cc2nccc(Oc3ccc(NC(=O)Nc4cc(C(F)(F)F)ccc4C)cc3)c2c2c1OCCO2 [Example 95, 1-(4-((5-methoxy-2,3-dihydro-[1,4]dioxino[2,3-f]quinolin-10-yl)oxy)phenyl)-3-(2-methyl-5-(trifluoromethyl)phenyl)urea] | < 0.05 | < 0.05 | – | – |
| CCOc1cc2nccc(Oc3ccc(NC(=O)NC4CC4)c(Cl)c3)c2c2c1OCCO2 [Example 43, 1-(2-chloro-4-((5-ethoxy-2,3-dihydro-[1,4]dioxino[2,3-f]quinolin-10-yl)oxy)phenyl)-3-cyclopropylurea] | < 0.05 | < 0.05 | – | – |
| CN(C)CCCCCCOc1cc2nccc(Oc3ccc(NC(=O)Nc4ccc(Cl)c(C(F)(F)F)c4)cc3)c2c2c1OCCO2 [Example 30, 1-(4-chloro-3-(trifluoromethyl)phenyl)-3-(4-((5-((6-(dimethylamino)hexyl)oxy)-2,3-dihydro-[1,4]dioxino[2,3-f]quinolin-10-yl)oxy)phenyl)urea] | – | < 0.05 | 0.05 to 0.5 | – |
| N#CCCCOc1cc2nccc(Oc3ccc(NC(=O)Nc4ccc(Cl)c(C(F)(F)F)c4)cc3)c2c2c1OCCO2 [Example 94, 1-(4-chloro-3-(trifluoromethyl)phenyl)-3-(4-((5-(3-cyanopropoxy)-2,3-dihydro-[1,4]dioxino[2,3-f]quinolin-10-yl)oxy)phenyl)urea] | – | < 0.05 | 0.05 to 0.5 | – |
| CNC(=O)Nc1ccc(Oc2ccnc3cc(OC)c4c(c23)OCCO4)cc1Cl [Example 79, 1-(2-chloro-4-((5-methoxy-2,3-dihydro-[1,4]dioxino[2,3-f]quinolin-10-yl)oxy)phenyl)-3-methylurea] | < 0.05 | < 0.05 | – | – |
| O=C(Nc1ccc(Oc2ccnc3cc(OCCCN4CCCC4)c4c(c23)OCCO4)cc1Cl)NC1CC1 [Example 53, 1-(2-chloro-4-((5-(3-(pyrrolidin-1-yl)propoxy)-2,3-dihydro-[1,4]dioxino[2,3-f]quinolin-10-yl)oxy)phenyl)-3-cyclopropylurea] | < 0.05 | < 0.05 | – | – |
| O=C(Nc1ccc(Oc2ccnc3cc(OCCCN4CCCC4)c4c(c23)OCCO4)cc1)Nc1ccc(Cl)c(C(F)(F)F)c1 [Example 18, 1-(4-chloro-3-(trifluoromethyl)phenyl)-3-(4-((5-(3-(pyrrolidin-1-yl)propoxy)-2,3-dihydro-[1,4]dioxino[2,3-f]quinolin-10-yl)oxy)phenyl)urea] | < 0.05 | < 0.05 | – | – |
| CN(CCCOc1cc2nccc(Oc3ccc(NC(=O)NC4CC4)c(Cl)c3)c2c2c1OCCO2)C1CCC1 [Example 63, 1-(2-chloro-4-((5-(3-(cyclobutyl(methyl)amino)propoxy)-2,3-dihydro-[1,4]dioxino[2,3-f]quinolin-10-yl)oxy)phenyl)-3-cyclopropylurea] | < 0.05 | < 0.05 | – | – |
| COCCN(C)CCCOc1cc2nccc(Oc3ccc(NC(=O)Nc4ccc(Cl)c(C(F)(F)F)c4)cc3)c2c2c1OCCO2 [Example 27, 1-(4-chloro-3-(trifluoromethyl)phenyl)-3-(4-((5-(3-((2-methoxyethyl)(methyl)amino)propoxy)-2,3-dihydro-[1,4]dioxino[2,3-f]quinolin-10-yl)oxy)phenyl)urea] | – | < 0.05 | 0.05 to 0.5 | – |
| CC1(O)CCN(CCCOc2cc3nccc(Oc4ccc(NC(=O)Nc5ccc(Cl)c(C(F)(F)F)c5)cc4)c3c3c2OCCO3)CC1 [Example 25, 1-(4-chloro-3-(trifluoromethyl)phenyl)-3-(4-((5-(3-(4-hydroxy-4-methylpiperidin-1-yl)propoxy)-2,3-dihydro-[1,4]dioxino[2,3-f]quinolin-10-yl)oxy)phenyl)urea] | < 0.05 | < 0.05 | – | – |
| O=C(Nc1ccc(Oc2ccnc3cc(OCCCN4CCCCC4)c4c(c23)OCCO4)cc1)Nc1ccc(Cl)c(C(F)(F)F)c1 [Example 19, 1-(4-chloro-3-(trifluoromethyl)phenyl)-3-(4-((5-(3-(piperidin-1-yl)propoxy)-2,3-dihydro-[1,4]dioxino[2,3-f]quinolin-10-yl)oxy)phenyl)urea] | < 0.05 | – | – | – |
| CCCNC(=O)Nc1ccc(Oc2ccnc3cc(OCCCN4CCOCC4)c4c(c23)OCCO4)cc1Cl [Example 87, 1-(2-chloro-4-((5-(3-morpholinopropoxy)-2,3-dihydro-[1,4]dioxino[2,3-f]quinolin-10-yl)oxy)phenyl)-3-prop ylurea] | – | – | < 0.05 | < 0.05 |
| COCCOc1cc2nccc(Oc3ccc(NC(=O)NC4CC4)c(F)c3)c2c2c1OCCO2 [Example 91, 1-cyclopropyl-3-(2-fluoro-4-((5-(2-methoxyethoxy)-2,3-dihydro-[1,4]dioxino[2,3-f]quinolin-10-yl)oxy)phenyl)urea] | < 0.05 | < 0.05 | – | – |
| CN(C)CCCOc1cc2nccc(Oc3ccc(NC(=O)NC4CC4)c(Cl)c3)c2c2c1OCCO2 [Example 52, 1-(2-chloro-4-((5-(3-(dimethylamino)propoxy)-2,3-dihydro-[1,4]dioxino[2,3-f]quinolin-10-yl)oxy)phenyl)-3-cyclopropylurea] | < 0.05 | < 0.05 | – | – |
| COCCOc1cc2nccc(Oc3ccc(NC(=O)NC4CCC4)c(Cl)c3)c2c2c1OCCO2 [Example 70, 1-(2-chloro-4-((5-(2-methoxyethoxy)-2,3-dihydro-[1,4]dioxino[2,3-f]quinolin-10-yl)oxy)phenyl)-3-cyclobutylurea] | < 0.05 | < 0.05 | – | – |
| COc1cc2nccc(Oc3ccc(NC(=O)NC4CC4)c(F)c3)c2c2c1OCCO2 [Example 84, 1-cyclopropyl-3-(2-fluoro-4-((5-methoxy-2,3-dihydro-[1,4]dioxino[2,3-f]quinolin-10-yl)oxy)phenyl)urea] | – | – | < 0.05 | < 0.05 |
| O=C(Nc1ccc(Oc2ccnc3cc(OCCCO)c4c(c23)OCCO4)cc1Cl)NC1CC1 [Example 50, 1-(2-chloro-4-((5-(3-hydroxypropoxy)-2,3-dihydro-[1,4]dioxino[2,3-f]quinolin-10-yl)oxy)phenyl)-3-cyclopropylurea] | < 0.05 | < 0.05 | – | – |
| N#CCCCOc1cc2nccc(Oc3ccc(NC(=O)NC4CC4)c(Cl)c3)c2c2c1OCCO2 [Example 93, 1-(2-chloro-4-((5-(3-cyanopropoxy)-2,3-dihydro-[1,4]dioxino[2,3-f]quinolin-10-yl)oxy)phenyl)-3-cyclopropylurea] | < 0.05 | < 0.05 | – | – |
| Cc1ccc(C(F)(F)F)cc1NC(=O)Nc1ccc(Oc2ccnc3cc(OCCCN4CCOCC4)c4c(c23)OCCO4)cc1 [Example 96, 1-(2-methyl-5-(trifluoromethyl)phenyl)-3-(4-((5-(3-morpholinopropoxy)-2,3-dihydro-[1,4]dioxino[2,3-f]quinolin-10-yl)oxy)phenyl)urea] | – | < 0.05 | 0.05 to 0.5 | – |
| COCCCOc1cc2nccc(Oc3ccc(NC(=O)NC4CC4)c(Cl)c3)c2c2c1OCCO2 [Example 51, 1-(2-chloro-4-((5-(3-methoxypropoxy)-2,3-dihydro-[1,4]dioxino[2,3-f]quinolin-10-yl)oxy)phenyl)-3-cyclopropylurea] | < 0.05 | < 0.05 | – | – |
| O=C(Nc1ccc(Oc2ccnc3cc(OCCCN4CCOCC4)c4c(c23)OCCO4)cc1Cl)NC1CC1 [Example 55, 1-(2-chloro-4-((5-(3-morpholinopropoxy)-2,3-dihydro-[1,4]dioxino[2,3-f]quinolin-10-yl)oxy)phenyl)-3-cyclopropylurea] | < 0.05 | < 0.05 | – | – |
| CC(C)CNC(=O)Nc1ccc(Oc2ccnc3cc(OCCCN4CCOCC4)c4c(c23)OCCO4)cc1Cl [Example 89, 1-(2-chloro-4-((5-(3-morpholinopropoxy)-2,3-dihydro-[1,4]dioxino[2,3-f]quinolin-10-yl)oxy)phenyl)-3-isobutylurea] | < 0.05 | < 0.05 | – | – |
| O=C(Nc1ccc(Oc2ccnc3cc(OCCO)c4c(c23)OCCO4)cc1Cl)NC1CC1 [Example 48, 1-(2-chloro-4-((5-(2-hydroxyethoxy)-2,3-dihydro-[1,4]dioxino[2,3-f]quinolin-10-yl)oxy)phenyl)-3-cyclopropylurea] | < 0.05 | < 0.05 | – | – |
| CC(=O)N1CCN(CCCOc2cc3nccc(Oc4ccc(NC(=O)NC5CC5)c(Cl)c4)c3c3c2OCCO3)CC1 [Example 57, 1-(4-((5-(3-(4-acetylpiperazin-1-yl)propoxy)-2,3-dihydro-[1,4]dioxino[2,3-f]quinolin-10-yl)oxy)-2-chlorophenyl)-3-cyclopropylurea] | < 0.05 | < 0.05 | – | – |
| COCCOc1cc2nccc(Oc3ccc(NC(=O)Nc4ccc(Cl)c(C(F)(F)F)c4)cc3)c2c2c1OCCO2 [Example 8, 1-(4-chloro-3-(trifluoromethyl)phenyl)-3-(4-((5-(2-methoxyethoxy)-2,3-dihydro-[1,4]dioxino[2,3-f]quinolin-10-yl)oxy)phenyl)urea] | – | < 0.05 | – | – |
| COc1cc2nccc(Oc3ccc(NC(=O)Nc4ccc(F)cc4)cc3)c2c2c1OCCO2 [Example 3, 1-(4-fluorophenyl)-3-(4-((5-methoxy-2,3-dihydro-[1,4]dioxino[2,3-f]quinolin-10-yl)oxy)phenyl)urea] | – | – | – | 0.05 to 0.5 |
